US20180344725A1, “QUINOLONE CHALCONE COMPOUNDS AND USES THEREOF” (priority 2015, published 2018)

Columns and labels:
Type in all cases: cell-based
HeLa cells = experiment: γ-H2AX immunostaining (DNA damage); conditions: 3.0 μM
Protocol: CTR-17 caused neither impediment of DNA replication nor DNA damage. […] The detection of EdU incorporated into DNA was carried out by fluorescence microscopy. […] Etoposide (50.0 μM) was used as a positive control.

RPMI-8226-BR = experiment: Antiproliferation, bortezomib-resistant cells; conditions: RPMI-8226-BR (bortezomib-resistant)
Protocol: For (anti)proliferation assays, 4,000-5,000 cells/well of the 96-well clustered dish were incubated for 16 hours, as described previously (Hu et al., 2008; Skehan et al., 1990). After 16 hours, culture medium was replaced with fresh medium containing different dilutions of test compounds dissolved in DMSO. Some wells were treated with 100 μl of 10% trichloroacetic acid (TCA) as a negative control and sham (medium with dimethyl sulfoxide; DMSO) treated cells were used as a positive control. After 72 hours post-incubation, medium was removed and cells were fixed with 10% TCA at 4° C. for 1 hour. […] SRB stained macromolecules were determined at a 540 nm wavelength using an automated plate reader (Synergy H4 Hybrid Multi-Mode Microplate Reader, BioTek, Winooski, Vt.). Cell growth (inhibition) was calculated by the following formula: […]
wherein AT=absorbance of treated cells, CT=absorbance of negative control cells, and ST=absorbance of sham treated cells. IC50 values were calculated from sigmoidal dose-response curves generated by two independent biological replicates, with quadruplicate in each set by using Graph Pad Prism v.5.04 software. […] The combinational index (CI) was calculated as described previously (Chou 2006). […] CI values were determined from four independent experiments.

HeLa S3 cells = experiment: Trypan blue exclusion assay; conditions: 1 μM; 72 hours post-treatment
Protocol: Cell survival/death was determined by trypan blue exclusion assays.

With COc1ccccc1C(=O)/C=C/c1cc2ccccc2[nH]c1=O [CTR-17, (E)-3-(3-(2-Methoxyphenyl)-3-oxoprop-1-enyl)quinolin-2(1H)-one] the “DNA damage (γ-H2AX)” value (HeLa cells) was “does not cause any notable DNA damage”.
Work on COc1ccc2[nH]c(=O)c(/C=C/C(=O)c3ccccc3OC)cc2c1 [CTR-20, (E)-6-Methoxy-3-(3-(2-methoxyphenyl)-3-oxoprop-1-enyl) quinolin-2(1H)-one] yielded an IC50 (RPMI-8226-BR) of 280 ± 30 nM and a cell death (HeLa S3 cells) of roughly 70%.
